# Measured values from patent publication US7557213B2, “Substituted quinolones and methods of use” (ChemoCentryx, Inc., priority 2005, dated 2009).
# Biological target: T1, CCXCKR2 receptor (Homo sapiens, UniProt P25106)
# T1 construct: expressed in transfected cells; host or cells: MDA-MB-435S transfected with pcDNA3.1(+)-hRDC1 and/or MCF-7 (endogenous receptor)
# Test: Displacement of 125I-labeled SDF-1 from the CCXCKR2 receptor on MCF-7 and/or CCXCKR2-transfected MDA-MB-435S cells (radioligand binding, filtration)
# Settings: 125I SDF-1, 3 hr at 4° C., MCF-7 and/or MDA-MB-435S cells; read-out: Activity (concentration displacing at least 50% of the SDF-1 from the CCXCKR2 receptor)
# T1 sequence (P25106 whole entry): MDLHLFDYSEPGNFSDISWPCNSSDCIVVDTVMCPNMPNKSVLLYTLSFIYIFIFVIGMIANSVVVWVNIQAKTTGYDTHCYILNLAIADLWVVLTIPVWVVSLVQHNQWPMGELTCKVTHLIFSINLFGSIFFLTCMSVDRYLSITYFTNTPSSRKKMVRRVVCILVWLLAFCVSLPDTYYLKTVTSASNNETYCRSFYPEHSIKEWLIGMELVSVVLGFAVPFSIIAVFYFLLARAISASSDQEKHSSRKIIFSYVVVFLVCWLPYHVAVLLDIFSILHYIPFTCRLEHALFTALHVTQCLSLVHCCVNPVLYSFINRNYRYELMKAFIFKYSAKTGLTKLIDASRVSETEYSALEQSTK
row,SMILES,IC50 [nM]
1,COc1ncc(C(=O)c2cn(Cc3cccc(Cl)c3)c3ccccc3c2=O)cc1C [Example 240],< 100
2,O=C(c1ccc(N2CCCC2)nc1)c1cn(Cc2cccc(Br)n2)c2ccccc2c1=O [Example 241],100 to 500
3,COc1ccc(C(=O)c2cn(Cc3cccc(Br)n3)c3ccccc3c2=O)nc1C [Example 242],< 100
4,COc1ccc(C(=O)c2cn(Cc3cccc(Cl)c3)c3ccccc3c2=O)cc1 [Example 243],< 100
5,CCc1ccc(C(=O)c2cn(Cc3cccc(Cl)c3)c3ccccc3c2=O)cn1 [Example 244],100 to 500
6,CN(C)c1ccc(C(=O)c2cn(Cc3cccc(Cl)c3)c3ccccc3c2=O)cn1 [Example 245],< 100
7,COc1ccc(C(=O)c2cn(Cc3cccc(Cl)c3)c3ccccc3c2=O)cn1 [Example 246],< 100
